Results on five compounds are retold here after patent US12018059B2, “Human amylin analog polypeptides and methods of use” (Intarcia Therapeutics, Inc., priority 2018, dated 2024).

Molecules are shown by their SMILES. Starred links: 1 amine or outer side, 2 acyl side, 3 side chain; linkers in the order of their positions; H or OH if unused. Positions of bridges follow the written chain, without caps; N, C: chain ends. Non-standard residues stand in square brackets, D forms with d. Residues, ends and D or L forms follow the SMILES beside them. Groups on a side chain read outwards from the residue. *: point of attachment. γGlu = O=C(O)[C@H](CCC(=O)[*:2])N[*:1]; HOOC(CH2)6CO = O=C(O)CCCCCCC(=O)*; Palmitoyl = CCCCCCCCCCCCCCCC(=O)*; AEEA = NCCOCCOCC(=O)O

A short description of this data set: in vivo. On the set-up: species or system Sprague-Dawley rats. Particulars: rat, iv, 0.033 mg/kg. As for the experimental part: Peptides were dissolved in sterile saline and administered as a 1-hour intravenous infusion to non-fasted male Sprague-Dawley rats (n=3 per group) via femoral vein cannula at a final dose of 0.033 mg/kg. […] Blood samples (approximately 250 μL) were collected for pharmacokinetic analysis via a jugular vein cannula at 0.25, 0.5, 0.75, 1, 1.17, 1.33, 1.5, 2, 4, 6, 8, 24, 30 and 48 hr post-start of infusion into microtainer tubes containing K2EDTA as anticoagulant and 25 μL of a protease inhibitor cocktail. Plasma was prepared by centrifugation and stored at −80° C. until analysis. The results of this analysis are shown in Table 9 and few exemplars in FIGS. 3a-3b. […]
A 60 μL aliquot of each plasma sample was placed into to a 96-well plate. To each well was added 6 μL of 0.5% Tween-20. Plates were then vortexed mixed for 10 minutes at 1200 rpm before 180 μL of 0.1% TFA in 2:1 ethanol:acetonitrile containing an appropriate internal standard was added to each well. Plates were vortex mixed for 5 min at 1300 rpm, and then centrifuged for 10 min at 2844×g. Supernatants (180 μL) were placed into a clean 96-well plate and evaporated under a nitrogen stream at 45° C. Residues were reconstituted in 80 μL of 20% acetonitrile (aq) containing 0.1% formic acid.
A […] aliquot of each plasma sample was diluted with […] of 10 mM ammonium acetate (pH 6.8) containing an appropriate internal standard and loaded onto an Oasis WCX microElution plate (Waters Corporation, Milford, MA) that had been pre-conditioned with […] of methanol and […] of deionized water. Samples were washed with […] of 5% ammonium hydroxide (aq) followed by […] of 20% acetonitrile in water. The analyte was eluted with […] of 5% formic acid in 75:25 acetonitrile:water. The eluent was dried under a nitrogen stream. Residues were reconstituted in 80 μL of 20% acetonitrile (aq) containing 0.1% formic acid.
All calibration standards were prepared in control rat plasma containing K2EDTA and protease inhibitor cocktail.
Samples and standards were analyzed by TurbolonSpray™ UPLC-MS/MS using a system consisting of a CTC HTS PAL auto-injector (Leap, Carrboro, NC), an Agilent Infinity 1290 system with column oven (Palo Alto, CA), a Valco switching valve (Houston, TX), and either an AB Sciex API 5600 TripleTOF™ or Sciex API 4000QTrap mass spectrometer (Framingham, MA). Samples were injected onto a 2.1×50 mm reverse phase C18 analytical column, typically a Waters CORTECS UPLC C18+, 1.6 μm (Waters Corporation, Milford, MA) or similar. […] Initial conditions consisted of 90% A and 10% B. The organic component was increased to 95% B over a period of 3-4 minutes, depending on the peptide. Typical flow rates were 600 μL/min. The column temperature was held constant at 40 or 50° C. Peptides were quantified by monitoring one or more product ions produced from a multiply charged parent ion.
The Vd is the apparent volume that relates the amount in the body to the concentration in plasma or blood. Low readings indicate confinement near the circulation, high ones extensive tissue distribution. A word on the clearance: it is the volume of plasma or blood freed of the substance per unit of time. Read a high clearance as efficient removal. What is called half-life is the time in which the quantity being followed falls by half. For the compound `CCCCCCCCCCCCCCCC(=O)N[C@@H](CCC(=O)NCCCC[C@H](NC(=O)[C@H](CC(C)C)NC(=O)[C@H](CCC(=O)O)NC(=O)[C@H](CC(N)=O)NC(=O)[C@H](C)NC(=O)[C@H](CC(C)C)NC(=O)[C@H](CCCNC(=N)N)NC(=O)[C@H](CCC(N)=O)NC(=O)[C@@H](NC(=O)[C@H](C)NC(=O)[C@@H]1CSSC[C@H](NC(=O)[C@@H](N)CO)C(=O)N[C@@H](CC(N)=O)C(=O)N[C@@H]([C@@H](C)O)C(=O)N[C@@H](CO)C(=O)N[C@@H]([C@@H](C)O)C(=O)N1)[C@@H](C)O)C(=O)N[C@@H](CCCCN)C(=O)N[C@@H](CO)C(=O)N[C@@H](CO)C(=O)N[C@@H](CC(N)=O)C(=O)N[C@@H](CC(N)=O)C(=O)N[C@@H](Cc1ccccc1)C(=O)NCC(=O)N1CCC[C@H]1C(=O)N[C@H](C(=O)N[C@@H](CC(C)C)C(=O)N1CCC[C@H]1C(=O)N1CCC[C@H]1C(=O)N[C@H](C(=O)N[C@@H](CCCCN)C(=O)N[C@H](C(=O)NCC(=O)N[C@@H](CO)C(=O)N[C@@H](CCC(=O)O)C(=O)N[C@H](C(=O)N[C@@H](Cc1ccc(O)cc1)C(N)=O)[C@@H](C)O)C(C)C)[C@@H](C)O)[C@@H](C)CC)C(=O)O` [Compound A10] (H-SCNTSTCATQRLANELK([γGlu-Palmitoyl])KSSNNFGPILPPTKVGSETY-NH2; disulfide 2-7), the volume of distribution (Vd) was 0.245 L/kg, the clearance was found to be 3.72 mL/min/kg and the half-life is 0.965 h.

As to `CCCCCCCCCCCCCCCC(=O)N[C@@H](CCC(=O)NCCOCCOCC(=O)NCCOCCOCC(=O)NCCCC[C@@H](NC(=O)[C@H](CCC(=O)O)NC(=O)[C@H](CC(N)=O)NC(=O)[C@H](C)NC(=O)[C@H](CC(C)C)NC(=O)[C@H](CCCNC(=N)N)NC(=O)[C@H](CCC(N)=O)NC(=O)[C@@H](NC(=O)[C@H](C)NC(=O)[C@@H]1CSSC[C@H](NC(=O)[C@@H](N)CO)C(=O)N[C@@H](CC(N)=O)C(=O)N[C@@H]([C@@H](C)O)C(=O)N[C@@H](CO)C(=O)N[C@@H]([C@@H](C)O)C(=O)N1)[C@@H](C)O)C(=O)N[C@@H](Cc1c[nH]cn1)C(=O)N[C@@H](CCCCN)C(=O)N[C@@H](CO)C(=O)N[C@@H](CO)C(=O)N[C@@H](CC(N)=O)C(=O)N[C@@H](CC(N)=O)C(=O)N[C@@H](Cc1ccccc1)C(=O)NCC(=O)N1CCC[C@H]1C(=O)N[C@H](C(=O)N[C@@H](CC(C)C)C(=O)N1CCC[C@H]1C(=O)N1CCC[C@H]1C(=O)N[C@H](C(=O)N[C@@H](CCCCN)C(=O)N[C@H](C(=O)NCC(=O)N[C@@H](CO)C(=O)N[C@@H](CCC(=O)O)C(=O)N[C@H](C(=O)N[C@@H](Cc1ccc(O)cc1)C(N)=O)[C@@H](C)O)C(C)C)[C@@H](C)O)[C@@H](C)CC)C(=O)O` [Compound A12] (H-SCNTSTCATQRLANE[dK]([AEEA-AEEA-γGlu-Palmitoyl])HKSSNNFGPILPPTKVGSETY-NH2; disulfide 2-7; N-terminus assumed), the Vd turned out to be 0.252 L/kg, the clearance worked out at 1.55 mL/min/kg and the half-life was 2.47 h.

With `CCCCCCCCCCCCCCCC(=O)N[C@@H](CCC(=O)N[C@@H](CCC(=O)N[C@@H](CCC(=O)N[C@@H](CCC(=O)N[C@@H](CCC(=O)NCCCC[C@H](NC(=O)[C@H](CCC(=O)O)NC(=O)[C@H](CC(N)=O)NC(=O)[C@H](C)NC(=O)[C@H](CC(C)C)NC(=O)[C@H](CCCNC(=N)N)NC(=O)[C@H](CCC(N)=O)NC(=O)[C@@H](NC(=O)[C@H](C)NC(=O)[C@@H]1CSSC[C@H](NC(=O)[C@@H](N)CO)C(=O)N[C@@H](CC(N)=O)C(=O)N[C@@H]([C@@H](C)O)C(=O)N[C@@H](CO)C(=O)N[C@@H]([C@@H](C)O)C(=O)N1)[C@@H](C)O)C(=O)N[C@@H](Cc1c[nH]cn1)C(=O)N[C@@H](CCCCN)C(=O)N[C@@H](CO)C(=O)N[C@@H](CO)C(=O)N[C@@H](CC(N)=O)C(=O)N[C@@H](CC(N)=O)C(=O)N[C@@H](Cc1ccccc1)C(=O)NCC(=O)N1CCC[C@H]1C(=O)N[C@H](C(=O)N[C@@H](CC(C)C)C(=O)N1CCC[C@H]1C(=O)N1CCC[C@H]1C(=O)N[C@H](C(=O)N[C@@H](CCCCN)C(=O)N[C@H](C(=O)NCC(=O)N[C@@H](CO)C(=O)N[C@@H](CCC(=O)O)C(=O)N[C@H](C(=O)N[C@@H](Cc1ccc(O)cc1)C(N)=O)[C@@H](C)O)C(C)C)[C@@H](C)O)[C@@H](C)CC)C(=O)O)C(=O)O)C(=O)O)C(=O)O)C(=O)O` [Compound A14] (H-SCNTSTCATQRLANEK([γGlu-γGlu-γGlu-γGlu-γGlu-Palmitoyl])HKSSNNFGPILPPTKVGSETY-NH2; disulfide 2-7), the Vd turned out to be 0.163 L/kg, the clearance came to 0.183 mL/min/kg and the half-life was 11.3 h.

Compound `CC[C@H](C)[C@H](NC(=O)[C@@H]1CCCN1C(=O)CNC(=O)[C@H](Cc1ccccc1)NC(=O)[C@H](CC(N)=O)NC(=O)[C@H](CC(N)=O)NC(=O)[C@H](CO)NC(=O)[C@H](CO)NC(=O)[C@H](CCCCN)NC(=O)[C@H](Cc1c[nH]cn1)NC(=O)[C@H](CC(C)C)NC(=O)[C@H](CCCCNC(=O)CCCCCCC(=O)O)NC(=O)[C@H](CC(N)=O)NC(=O)[C@H](C)NC(=O)[C@H](CC(C)C)NC(=O)[C@H](CCCNC(=N)N)NC(=O)[C@H](CCC(N)=O)NC(=O)[C@@H](NC(=O)[C@H](C)NC(=O)[C@@H]1CSSC[C@H](NC(=O)[C@@H](N)CO)C(=O)N[C@@H](CC(N)=O)C(=O)N[C@@H]([C@@H](C)O)C(=O)N[C@@H](CO)C(=O)N[C@@H]([C@@H](C)O)C(=O)N1)[C@@H](C)O)C(=O)N[C@@H](CC(C)C)C(=O)N1CCC[C@H]1C(=O)N1CCC[C@H]1C(=O)N[C@H](C(=O)N[C@@H](CCCCN)C(=O)N[C@H](C(=O)NCC(=O)N[C@@H](CO)C(=O)N[C@@H](CCC(=O)O)C(=O)N[C@H](C(=O)N[C@@H](Cc1ccc(O)cc1)C(N)=O)[C@@H](C)O)C(C)C)[C@@H](C)O` [Compound A18] (H-SCNTSTCATQRLANK(HOOC(CH2)6CO)LHKSSNNFGPILPPTKVGSETY-NH2; disulfide 2-7) gave a Vd of 0.805 L/kg, a clearance of 19.4 mL/min/kg and a half-life of 0.508 h.

The compound `CCCCCCCCCCCCCCCC(=O)N[C@@H](CCC(=O)N[C@@H](CCC(=O)N[C@@H](CCC(=O)NCCOCCOCC(=O)NCCOCCOCC(=O)N[C@@H](CCC(=O)NCCCC[C@H](NC(=O)[C@H](CCC(=O)O)NC(=O)[C@H](CC(N)=O)NC(=O)[C@H](C)NC(=O)[C@H](CC(C)C)NC(=O)[C@H](CCCNC(=N)N)NC(=O)[C@H](CCC(N)=O)NC(=O)[C@@H](NC(=O)[C@H](C)NC(=O)[C@@H]1CSSC[C@H](NC(=O)[C@@H](N)CO)C(=O)N[C@@H](CC(N)=O)C(=O)N[C@@H]([C@@H](C)O)C(=O)N[C@@H](CO)C(=O)N[C@@H]([C@@H](C)O)C(=O)N1)[C@@H](C)O)C(=O)N[C@@H](Cc1c[nH]cn1)C(=O)N[C@@H](CCCCN)C(=O)N[C@@H](CO)C(=O)N[C@@H](CO)C(=O)N[C@@H](CC(N)=O)C(=O)N[C@@H](CC(N)=O)C(=O)N[C@@H](Cc1ccccc1)C(=O)NCC(=O)N1CCC[C@H]1C(=O)N[C@H](C(=O)N[C@@H](CC(C)C)C(=O)N1CCC[C@H]1C(=O)N1CCC[C@H]1C(=O)N[C@H](C(=O)N[C@@H](CCCCN)C(=O)N[C@H](C(=O)NCC(=O)N[C@@H](CO)C(=O)N[C@@H](CCC(=O)O)C(=O)N[C@H](C(=O)N[C@@H](Cc1ccc(O)cc1)C(N)=O)[C@@H](C)O)C(C)C)[C@@H](C)O)[C@@H](C)CC)C(=O)O)C(=O)O)C(=O)O)C(=O)O` [Compound A19] (H-SCNTSTCATQRLANEK([γGlu-AEEA-AEEA-γGlu-γGlu-γGlu-Palmitoyl])HKSSNNFGPILPPTKVGSETY-NH2; disulfide 2-7; N-terminus assumed) showed a Vd of 0.136 L/kg, a clearance of 0.15 mL/min/kg and a half-life of 11.5 h.
